Assay results from patent publication US20250268877A1 (BIOGEN MA INC., priority 2020, published 2025).
In brackets after ≈: the same amount, converted by molar mass.

Assays:
IRAK4 = IRAK4 (Homo sapiens (Human), UniProt Q9NWZ3); experiment: IRAK4 2-hour 1 mM ATP Biochemical Assay (MesoScale Detection format); conditions: 100 pM IRAK4, read-out: IRAK4 IC50
MDR1 = MDR1 (Homo sapiens (Human), UniProt P08183); experiment: MDR1-MDCK assay (apparent permeability, efflux ratio); format: in vitro ADME; conditions: human, MDCK-MDR1, 1 μM, read-out: MDR1-MDCK_Efflux Ratio
[1] = Kinetic solubility assay (CLND), potassium phosphate buffer pH 6.8; format: physicochemical; conditions: potassium phosphate buffer, pH 6.8, aqueous buffer, kinetic from dmso stock, pH 6.8, 2% DMSO, 24 hours at ambient temperature

Chain of IRAK4 (Q9NWZ3 whole entry): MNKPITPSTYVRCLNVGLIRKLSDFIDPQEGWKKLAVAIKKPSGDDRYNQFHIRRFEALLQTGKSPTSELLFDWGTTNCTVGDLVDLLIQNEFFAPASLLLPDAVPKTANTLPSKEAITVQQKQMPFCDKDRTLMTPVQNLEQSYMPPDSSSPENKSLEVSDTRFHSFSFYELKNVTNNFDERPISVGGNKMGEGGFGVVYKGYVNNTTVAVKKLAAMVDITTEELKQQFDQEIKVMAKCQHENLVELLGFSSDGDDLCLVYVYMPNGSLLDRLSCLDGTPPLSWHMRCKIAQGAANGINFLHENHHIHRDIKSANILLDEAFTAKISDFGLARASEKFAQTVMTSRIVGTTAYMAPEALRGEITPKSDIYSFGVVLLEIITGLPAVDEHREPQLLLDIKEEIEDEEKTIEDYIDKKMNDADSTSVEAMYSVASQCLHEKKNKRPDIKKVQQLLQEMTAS
Chain of MDR1 (P08183 whole entry): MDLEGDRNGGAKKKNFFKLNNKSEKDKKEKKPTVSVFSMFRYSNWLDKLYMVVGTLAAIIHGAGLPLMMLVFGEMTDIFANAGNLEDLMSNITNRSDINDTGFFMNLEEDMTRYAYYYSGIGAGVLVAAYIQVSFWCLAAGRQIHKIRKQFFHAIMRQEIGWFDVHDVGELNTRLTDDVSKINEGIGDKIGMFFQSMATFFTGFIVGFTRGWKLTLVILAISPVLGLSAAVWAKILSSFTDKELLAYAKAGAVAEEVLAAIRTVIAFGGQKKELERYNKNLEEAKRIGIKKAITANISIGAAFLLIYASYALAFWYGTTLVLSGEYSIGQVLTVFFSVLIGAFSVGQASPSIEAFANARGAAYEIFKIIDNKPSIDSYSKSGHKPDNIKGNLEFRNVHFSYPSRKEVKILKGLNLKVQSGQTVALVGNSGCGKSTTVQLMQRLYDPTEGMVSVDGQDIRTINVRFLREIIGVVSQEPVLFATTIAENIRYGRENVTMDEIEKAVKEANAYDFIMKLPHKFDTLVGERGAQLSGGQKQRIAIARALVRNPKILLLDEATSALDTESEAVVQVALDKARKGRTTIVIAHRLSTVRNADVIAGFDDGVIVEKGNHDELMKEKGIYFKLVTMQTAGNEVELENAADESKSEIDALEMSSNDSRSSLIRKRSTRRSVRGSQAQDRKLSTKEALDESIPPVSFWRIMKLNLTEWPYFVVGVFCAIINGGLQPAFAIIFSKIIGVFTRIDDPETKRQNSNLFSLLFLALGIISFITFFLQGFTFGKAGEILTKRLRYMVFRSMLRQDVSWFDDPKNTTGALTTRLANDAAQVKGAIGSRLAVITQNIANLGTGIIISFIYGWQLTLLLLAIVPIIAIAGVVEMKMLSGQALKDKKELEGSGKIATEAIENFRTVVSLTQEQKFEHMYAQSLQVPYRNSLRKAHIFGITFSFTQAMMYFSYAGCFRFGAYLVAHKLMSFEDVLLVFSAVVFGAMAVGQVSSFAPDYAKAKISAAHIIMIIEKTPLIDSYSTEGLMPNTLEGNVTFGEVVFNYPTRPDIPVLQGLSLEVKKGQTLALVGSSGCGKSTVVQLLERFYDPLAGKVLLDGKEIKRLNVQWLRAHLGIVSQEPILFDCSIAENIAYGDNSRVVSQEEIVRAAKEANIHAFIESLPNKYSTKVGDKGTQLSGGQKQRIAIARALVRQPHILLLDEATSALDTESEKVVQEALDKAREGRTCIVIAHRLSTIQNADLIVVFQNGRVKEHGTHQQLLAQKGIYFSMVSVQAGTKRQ

SMILES	IC50 (IRAK4)	efflux ratio at 120 min, 1 μM (MDR1)	solubility at 24 h [1]
CC(C)Oc1cc2nn(C34COC(C3)C4)cc2cc1C(=O)Nc1cccn([C@@H]2C[C@@H]2C)c1=O [Example 74, 2-(2-oxabicyclo[2.1.1]hexan-4-yl)-6-isopropoxy-N-(1-((1R,2S)-2-methylcyclopropyl)-2-oxo-1,2-dihydropyridin-3-yl)-2H-indazole-5-carboxamide]	26.5 nM	2.07	
CC(C)Oc1nc2nn(C34COC(C)(C3)C4)cc2cc1C(=O)Nc1cccn([C@@H]2C[C@@H]2F)c1=O (racemic) [Example 32, (rac)-Cis-N-(1-(2-fluorocyclopropyl)-2-oxo-1,2-dihydropyridin-3-yl)-6-isopropoxy-2-(1-methyl-2-oxabicyclo[2.1.1]hexan-4-yl)-2H-pyrazolo[3,4-b]pyridine-5-carboxamide]		4.18	16 µg/mL (≈ 34.2 µM)
CC(C)Oc1cc2nn(C34COC(CF)(C3)C4)cc2cc1C(=O)Nc1cccn([C@@H]2C[C@@H]2F)c1=O [Example 53, N-(1-((1R,2S)-2-fluorocyclopropyl)-2-oxo-1,2-dihydropyridin-3-yl)-2-(1-(fluoromethyl)-2-oxabicyclo[2.1.1]hexan-4-yl)-6-isopropoxy-2H-indazole-5-carboxamide]	9 nM	6.21	
CC[C@@H](C)Oc1nc2nn(C34COC(CF)(C3)C4)cc2cc1C(=O)Nc1cccn(C2CC2)c1=O [Example 20, (R)-6-(sec-butoxy)-N-(1-cyclopropyl-2-oxo-1,2-dihydropyridin-3-yl)-2-(1-(fluoromethyl)-2-oxabicyclo[2.1.1]hexan-4-yl)-2H-pyrazolo[3,4-b]pyridine-5-carboxamide]	4 nM	2.26	
CC(C)Oc1cc2nn(C34COC(C)(C3)C4)cc2cc1C(=O)Nc1cccn([C@@H]2C[C@H]2F)c1=O (single isomer, unassigned) [Example 54]		1.77	66.5 µg/mL (≈ 143 µM)
COCC12CC(n3cc4cc(C(=O)Nc5cccn([C@@H]6C[C@@H]6C)c5=O)c(OC(C)C)nc4n3)(CO1)C2 [Example 72, 6-isopropoxy-2-(1-(methoxymethyl)-2-oxabicyclo[2.1.1]hexan-4-yl)-N-(1-((1R,2S)-2-methylcyclopropyl)-2-oxo-1,2-dihydropyridin-3-yl)-2H-pyrazolo[3,4-b]pyridine-5-carboxamide]	27.4 nM	2.69	
CC(C)Oc1nc2nn(C34COC(C)(C3)C4)cc2cc1C(=O)Nc1cccn([C@H]2CC2(C)C)c1=O [Example 23, (S)—N-(1-(2,2-dimethylcyclopropyl)-2-oxo-1,2-dihydropyridin-3-yl)-6-isopropoxy-2-(1-methyl-2-oxabicyclo[2.1.1]hexan-4-yl)-2H-pyrazolo[3,4-b]pyridine-5-carboxamide]	1.3 nM	1.15	
CC(C)Oc1cc2nn(C34COC(C)(C3)C4)cc2cc1C(=O)Nc1cccn([C@H]2C[C@H]2C)c1=O [Example 96, 6-isopropoxy-2-(1-methyl-2-oxabicyclo[2.1.1]hexan-4-yl)-N-(1-((1S,2R)-2-methylcyclopropyl)-2-oxo-1,2-dihydropyridin-3-yl)-2H-indazole-5-carboxamide]			13.6 µg/mL (≈ 29.4 µM)
COCC12CC(n3cc4cc(C(=O)Nc5cccn([C@@H]6C[C@H]6F)c5=O)c(OC5CCC5)cc4n3)(CO1)C2 [Example 57, 6-cyclobutoxy-N-(1-((1R,2R)-2-fluorocyclopropyl)-2-oxo-1,2-dihydropyridin-3-yl)-2-(1-(methoxymethyl)-2-oxabicyclo[2.1.1]hexan-4-yl)-2H-indazole-5-carboxamide]	1.7 nM	2.39	
CC(C)Oc1cc2nn(C34COC(C)(C3)C4)cc2cc1C(=O)Nc1cccn([C@@H]2C[C@@H]2F)c1=O (racemic) [Example 35, (racemic)-Cis-N-(1-(2-fluorocyclopropyl)-2-oxo-1,2-dihydropyridin-3-yl)-6-isopropoxy-2-(1-methyl-2-oxabicyclo[2.1.1]hexan-4-yl)-2H-indazole-5-carboxamide]			65.7 µg/mL (≈ 141 µM)
CC(C)Oc1cc2nn(C34COC(C)(C3)C4)cc2cc1C(=O)Nc1cccn([C@H]2C[C@H]2F)c1=O (single isomer, unassigned) [Example 37]		2.71	56 µg/mL (≈ 120 µM)
CC[C@H](C)Oc1nc2nn(C34COC(CF)(C3)C4)cc2cc1C(=O)Nc1cccn(C2CC2)c1=O [Example 21, (S)-6-(sec-butoxy)-N-(1-cyclopropyl-2-oxo-1,2-dihydropyridin-3-yl)-2-(1-(fluoromethyl)-2-oxabicyclo[2.1.1]hexan-4-yl)-2H-pyrazolo[3,4-b]pyridine-5-carboxamide]	1.1 nM	3.33	
COCC12CC(n3cc4cc(C(=O)Nc5cccn([C@@H]6C[C@@H]6C)c5=O)c(OC(C)C)cc4n3)(CO1)C2 [Example 73, 6-isopropoxy-2-(1-(methoxymethyl)-2-oxabicyclo[2.1.1]hexan-4-yl)-N-(1-((1R,2S)-2-methylcyclopropyl)-2-oxo-1,2-dihydropyridin-3-yl)-2H-indazole-5-carboxamide]	43.2 nM	1.51	
CC(C)Oc1cc2nn(C34COC(C)(C3)C4)cc2cc1C(=O)Nc1cccn([C@@H]2C[C@@H]2F)c1=O (single isomer, unassigned) [Example 36]		2.96	69.5 µg/mL (≈ 149 µM)
CC(C)Oc1nc2nn(C34COC(C3)C4)cc2cc1C(=O)Nc1cccn([C@@H]2C[C@@H]2C)c1=O [Example 75, 2-(2-oxabicyclo[2.1.1]hexan-4-yl)-6-isopropoxy-N-(1-((1R,2S)-2-methylcyclopropyl)-2-oxo-1,2-dihydropyridin-3-yl)-2H-pyrazolo[3,4-b]pyridine-5-carboxamide]	36.9 nM	3.63	
CC(C)Oc1nc2nn(C34COC(C)(C3)C4)cc2cc1C(=O)Nc1cccn([C@@H]2CC2(C)C)c1=O [Example 22, (R)—N-(1-(2,2-dimethylcyclopropyl)-2-oxo-1,2-dihydropyridin-3-yl)-6-isopropoxy-2-(1-methyl-2-oxabicyclo[2.1.1]hexan-4-yl)-2H-pyrazolo[3,4-b]pyridine-5-carboxamide]	27 nM	1.03	
CC(C)Oc1cc2nn(C34COC(C)(C3)C4)cc2cc1C(=O)Nc1cccn([C@@H]2C[C@H]2C)c1=O (racemic) [Example 39, Racemic-(Trans)-6-isopropoxy-2-(1-methyl-2-oxabicyclo[2.1.1]hexan-4-yl)-N-(1-(2-methylcyclopropyl)-2-oxo-1,2-dihydropyridin-3-yl)-2H-indazole-5-carboxamide]			2.3 µg/mL (≈ 4.97 µM)
CC(C)Oc1cc2nn(C34COC(CF)(C3)C4)cc2cc1C(=O)Nc1cccn([C@H]2C[C@@H]2C)c1=O (single isomer, unassigned) [Example 70]	2.3 nM	1.59	

Now from value to molecule:

IC50 (IRAK4)	efflux ratio at 120 min, 1 μM (MDR1)	solubility at 24 h [1]	SMILES
	4.48	16.7 µg/mL (≈ 35.7 µM)	CC(C)Oc1nc2nn(C34COC(C)(C3)C4)cc2cc1C(=O)Nc1cccn([C@@H]2C[C@@H]2F)c1=O [Example 83, N-(1-((1R,2S)-2-fluorocyclopropyl)-2-oxo-1,2-dihydropyridin-3-yl)-6-isopropoxy-2-(1-methyl-2-oxabicyclo[2.1.1]hexan-4-yl)-2H-pyrazolo[3,4-b]pyridine-5-carboxamide]
6.6 nM	1.91		CC(C)Oc1nc2nn(C34COC(CF)(C3)C4)cc2cc1C(=O)Nc1cccn(C2(C)CC2)c1=O [Example 19, 2-(1-(Fluoromethyl)-2-oxabicyclo[2.1.1]hexan-4-yl)-6-isopropoxy-N-(1-(1-methylcyclopropyl)-2-oxo-1,2-dihydropyridin-3-yl)-2H-pyrazolo[3,4-b]pyridine-5-carboxamide]
	1.84	1.9 µg/mL (≈ 4.06 µM)	CC(C)Oc1nc2nn(C34COC(C)(C3)C4)cc2cc1C(=O)Nc1cccn([C@@H]2C[C@H]2F)c1=O (single isomer, unassigned) [Example 44]
4.3 nM	1.31		CC(C)Oc1nc2nn(C34COC(C)(C3)C4)cc2cc1C(=O)Nc1cccn(C2(C)CC2)c1=O [Example 18, 6-Isopropoxy-2-(1-methyl-2-oxabicyclo[2.1.1]hexan-4-yl)-N-(1-(1-methylcyclopropyl)-2-oxo-1,2-dihydropyridin-3-yl)-2H-pyrazolo[3,4-b]pyridine-5-carboxamide]
	1.82	1.8 µg/mL (≈ 3.85 µM)	CC(C)Oc1nc2nn(C34COC(C)(C3)C4)cc2cc1C(=O)Nc1cccn([C@H]2C[C@@H]2F)c1=O (single isomer, unassigned) [Example 43]
	2.5	2.8 µg/mL (≈ 5.99 µM)	CC(C)Oc1nc2nn(C34COC(C)(C3)C4)cc2cc1C(=O)Nc1cccn(C2C[C@@H]2F)c1=O (mixture of isomers) [Example 42, racemic-(Trans)-N-(1-(2-fluorocyclopropyl)-2-oxo-1,2-dihydropyridin-3-yl)-6-isopropoxy-2-(1-methyl-2-oxabicyclo[2.1.1]hexan-4-yl)-2H-pyrazolo[3,4-b]pyridine-5-carboxamide]
	4.15	6.6 µg/mL (≈ 14.1 µM)	CC(C)Oc1nc2nn(C34COC(C)(C3)C4)cc2cc1C(=O)Nc1cccn([C@@H]2C[C@@H]2F)c1=O (single isomer, unassigned) [Example 33]
	3.06	15.8 µg/mL (≈ 33.8 µM)	CC(C)Oc1nc2nn(C34COC(C)(C3)C4)cc2cc1C(=O)Nc1cccn([C@H]2C[C@H]2F)c1=O [Example 84, N-(1-((1S,2R)-2-fluorocyclopropyl)-2-oxo-1,2-dihydropyridin-3-yl)-6-isopropoxy-2-(1-methyl-2-oxabicyclo[2.1.1]hexan-4-yl)-2H-pyrazolo[3,4-b]pyridine-5-carboxamide]
